# “Also recorded” adds a separate entry of the source.
# Key:
# H3K9me2 levels = settings: Vedadi et al. 2011; Sweis et al. 2014; cited from earlier work
# EVSA-T parental cells = assay: Viability of EVSA-T parental cells; format: cell-based, human; settings: shown concentrations; FIG. 8B
# Method: (§1) 2×10^5 cells were plated in each well of a 6-well cluster dish. 24 hours after plating, media was removed and replaced with media containing drugs. Fresh media was replaced every 2 days until untreated cells reached confluence. Media was then removed, cells were washed with Phosphate Buffered Saline (PBS), and then fixed for 15 min with 4% formaldehyde in PBS. Cells were then washed with PBS and stained with the fluorescent nucleic acid stain, Syto60 ([…] in PBS; Molecular Probes) for 15 min. Dye was removed, cell monolayers were washed with PBS, and fluorescence quantitation was carried out at 700 nm with an Odyssey Infrared Imager (Li-Cor Biosciences). In some setting, RFP nuc red cells were used rather than Syto60.
# (§2) Generally, for G9a inhibitor experiments cells were treated with active compound at 0.1, 0.2, 0.5 and/or 1 uM of the G9a inhibitor, UNC0638, for 3-5 days prior to chemotherapy treatment and were maintained on drug for the duration of the study.
# Colo205 DTPs = assay: Colo205 DTP formation, AZ628; format: cell-based, human; settings: DTPs upon treatment with AZ628; FIG. 11B
# Method: as §1
# (§3) Drug-sensitive cells were treated with relevant drug as described herein at concentrations exceeding 100 times the established IC50 values, for three rounds, with each treatment lasting 72 hours. […]
# (§4) Specifically for Tarceva, GDC-0980, GDC-0973, AZ628, and Lapatinib DTPs, cells were plated and grown to 60-70% confluency then treated with Tarceva (0.1, 0.2, 0.5, and/or 1 uM), GDC-0980 (2 uM), GDC-0973 (1 uM), AZ628 (2 uM) and Lapatinib (1 uM). DTPs were collected and analyzed 1 week after the final dose of chemotherapy. […]
# EVSA-T DTPs = assay: EVSA-T DTP formation, GDC-0980; format: cell-based, human; settings: DTPs upon treatment with GDC-0980; FIG. 8B
# Method: as §1, §3, §4
# M14 DTPs = assay: M14 DTP formation, GDC0973; format: cell-based, human; settings: DTPs upon treatment with GDC0973; FIG. 10B
# Method: as §1, §3, §4
# SKBR3 DTPs = assay: SKBR3 DTP formation, Lapatinib; format: cell-based, human; settings: DTPs upon treatment with Lapatinib; FIG. 9B
# Method: as §1, §3, §4
# H3K9 methylation [1] = assay: H3K9 methylation in Colo205 cells (FIG. 11A); format: cell-based; settings: human colon cancer cell line Colo205
# Method: as §2
# (§5) Cell lysates were prepared in Laemmli sample buffer and analyzed by immunoblotting as described previously. Cell lystates were analyzed using commercial antibodies against modifications on H3 (Abcam, Active Motif, and Cell Signaling Technologies).
# H3K9 methylation [2] = assay: H3K9 methylation Western blot in PC9 cells (FIG. 6A); format: cell-based, human
# Method: as §2, §5
# parental PC9 cells = assay: Viability of parental PC9 cells; format: cell-based, human; settings: shown concentrations; FIG. 6B
# Method: as §1, §2
# Colo205 parental cells = assay: Viability of Colo205 parental cells; format: cell-based, human; settings: shown concentrations; FIG. 11B
# Method: as §1, §2
# methylation of H3K9 = assay: H3K9 methylation by Western blotting and mass spectrometry (FIG. 3A); format: cell-based
# Method: as §2, §5
# Samples with 10 million cells were lysed and histones were isolated from cell lysates using the Active Motif Histone Purification Kit (world wide web activemotif.com/catalog/171.html). Protein quantitation post-isolation was performed using the Qubit fluorescence platform (Invitrogen). The target yield was at least 20 μg or greater of purified histone per 5 million cells. The samples were then derivatized and binary comparisons using d0/d10 propionic anhydride and trypsin digestion was conducted. […]
# Peptide digests were analyzed by nano LC/MS/MS in data-dependent mode on a LTQ Orbitrap Velos tandem mass spectrometer. […] Trypsin-digested propionylated samples were quantitated within each LC/MS run by comparing d0/d5 pairs (according to the work of Garcia et al., JPR, 8, 5367-5374 (2009)). Alternate enzyme samples were quantitated label-free between LC/MS runs.
# H3K9 methylation [3] = assay: H3K9 methylation in M14 cells (FIG. 10A); format: cell-based; settings: human melanoma cell line M14
# Method: as §2, §5
# PC9 DTPs = assay: PC9 drug tolerant persister (DTP) formation/viability, Tarceva; format: cell-based, human
# Method: as §1, §3, §4
# M14 parental cells = assay: Viability of M14 parental cells; format: cell-based, human; settings: shown concentrations; FIG. 10B
# Method: as §1, §2
# H3K9 methylation [4] = assay: H3K9 methylation in SKBR3 cells (FIG. 9A); format: cell-based; settings: human breast adenocarcinoma cell line SKBR3
# Method: as §2, §5
# G9aK185me3 = assay: G9a auto-methylation (FIG. 3B); format: cell-based
# Method: Cell lysates were prepared in Laemmli sample buffer and analyzed by immunoblotting as described previously.
# SKBR3 parental cells = assay: Viability of SKBR3 parental cells; format: cell-based, human; settings: shown concentrations; FIG. 9B
# Method: as §1, §2
# H3K9 methylation [5] = assay: H3K9 methylation in EVSA-T cells (FIG. 8A); format: cell-based; settings: human breast cancer cell line EVSA-T
# Method: as §2, §5
smiles,measurement,setting,value
COc1cc2c(NC3CCN(C(C)C)CC3)nc(C3CCCCC3)nc2cc1OCCCN1CCCC1 [UNC0638],H3K9me2 levels,H3K9me2 levels,reduces H3K9me2 levels in a concentration dependent manner
same,viability of the EVSA-T parental cells,EVSA-T parental cells,do not affect the viability of the EVSA-T parental cells
same,number of Colo205 DTPs formed after pre-treatment,Colo205 DTPs,dose dependent reduction in the number of Colo205 DTPs formed
same,number of EVSA-T DTPs formed after pre-treatment,EVSA-T DTPs,dose dependent reduction in the number of EVSA-T DTPs formed
same,number of M14 DTPs formed after pre-treatment,M14 DTPs,dose dependent reduction in the number of M14 DTPs formed
same,number of SKBR3 DTPs formed after pre-treatment,SKBR3 DTPs,dose dependent reduction in the number of SKBR3 DTPs formed
same,"H3K9 methylation (me1, me2, me3)",H3K9 methylation [1],"reduces H3K9 methylation (e.g., me1, me2, and me3) in a dose dependent manner"
same,"H3K9 methylation (me1, me2, me3)",H3K9 methylation [2],"reduced methylation of H3K9; also recorded: reduces H3K9 methylation (e.g., me1, me2, and me3) in a dose dependent manner"
same,viability of the parental PC9 cells,parental PC9 cells,do not affect the viability of the parental PC9 cells
same,viability of the Colo205 parental cells,Colo205 parental cells,do not affect the viability of the Colo205 parental cells
same,inhibition of methylation of H3K9,methylation of H3K9,capable of inhibiting methylation of H3K9
same,"H3K9 methylation (me1, me2, me3)",H3K9 methylation [3],"reduces H3K9 methylation (e.g., me1, me2, and me3) in a dose dependent manner"
same,viability/number of PC9 DTPs generated via treatment with Tarceva,"PC9 DTPs; Tarceva, FIGS. 5 and 7","reduces the number of the non-small cell lung cancer cell line, PC9, DTPs; also recorded: reduced the viability of PC9 DTPs"
same,number of DTPs formed after pre-treatment,"PC9 DTPs; varying doses of UNC0638 pre-treatment, FIG. 6B",reducing the number of PC9 DTPs; also recorded: dose dependent reduction in the number of DTPs formed
same,viability of the M14 parental cells,M14 parental cells,do not affect the viability of the M14 parental cells
same,"H3K9 methylation (me1, me2, me3)",H3K9 methylation [4],"reduces H3K9 methylation (e.g., me1, me2, and me3) in a dose dependent manner"
same,inhibition of auto-methylation G9aK185me3,G9aK185me3,inhibits auto-methylation G9aK185me3
same,viability of the SKBR3 parental cells,SKBR3 parental cells,do not affect the viability of the SKBR3 parental cells
same,"H3K9 methylation (me1, me2, me3)",H3K9 methylation [5],"reduces H3K9 methylation (e.g., me1, me2, and me3) in a dose dependent manner"

# — patent US20170209444A1, “METHODS OF TREATING CANCER AND PREVENTING CANCER DRUG RESISTANCE” (Genentech, Inc., priority 2014, published 2017)
